Experimental data reported in US20210276960A1, “INHIBITORS OF TISSUE TRANSGLUTAMINASE 2 (TG2) AND USES THEREOF” (Northwestern University, priority 2020, published 2021).

Tested on: OVCAR5 cells
Assay: Sphere forming assay after priming, with paclitaxel
Format: cell-based, human
Conditions: priming with 1 μM, with 5 nM PTX
Method: After 72 h priming with either 1 μM MT-4, TG53 or vehicle (DMSO), 150 OVCAR5 cells were seeded in 60 mm dishes and treated or not with paclitaxel (PTX, Sigma). Colonies were allowed to form over 10 days, fixed in 4% PFA and stained with 0.4% crystal violet (MP Biomedicals). Colonies were counted, and analysis was performed using the ImageJ software ([…]).Spheroid cultures were carried out as previously described(Condello et al., 2015). Briefly, OC cells were resuspended in Mammocult complete medium (StemCell Technologies) supplemented with Mammocult Proliferation Supplements, heparin and hydrocortisone (StemCell Technologies) and seeded at a concentration of 10,000 cells/well in 96-well ultra-low attachment plates (Corning, Corning, N.Y., USA). After treatment with DMSO (control) or TG53 (1 μM) for 7 days, spheroids were counted and quantified by the CCK-8 assay. All assays were performed in four replicates and were repeated. For priming before PTX treatment, cells were manipulated as described for CFU assay and then seeded in 6-well low-attachment plate (Corning, #3473) at 7000 cells/mL/well and allowed to form spheroids in complete Mammocult media. Spheres were counted after ten days from 4 replicate wells. Two independent experiments were performed.

Structure (SMILES): Cc1cc(N(C)C)nc(Nc2ccc(NC(=O)Cc3ccccc3)cc2)n1 [MT-4]
- cell proliferation as spheres: more potently than PTX alone or PTX and TG53
